Assay [1] concerns the target T1, HisKIX (His-tagged CBP KIX domain) (Mus musculus, UniProt P45481).
T1 construct: The CBP KIX-coding region (residues 586 to 672) of pGEX-KT KIX 10-672; made in house; host or cells: E. coli BL21(DE3) pArg
As to the kind of experiment: Equilibrium fluorescence polarization, HisKIX binding. As to conditions: for Kd: 25° C.

The subject of assay [2] is hsCRE24 (CRE half-site DNA, ATGAC). Description: Electrophoretic mobility shift assay, binding to hsCRE24 DNA. The settings on record: for DNA binding: EMSA. How it is done:
Miniature protein-binding to DNA was measured using an electrophoretic mobility shift assay performed in a Model SE600 Dual-Controller Vertical Slab Unit (Hoefer) using 14×16 cm gel plates. Temperature was controlled using a constant temperature bath. Reactions were performed in a binding buffer composed of 137 mM NaCl, 2.7 mM KCl, 4.3 mM Na2HPO4, 1.4 mM NaH2PO4 (pH 7.4), 1 mM EDTA, 0.1% NP-40, 0.4 mg/ml BSA (non-acetylated) and 5% glycerol. For experiments involving the bZIP peptide C/EBP152, the binding buffer was supplemented with 2 mM dithiothreitol. Serial peptide dilutions were performed as 1:1 dilutions with binding buffer. In general, 0.002 ml of gamma ^32P-labeled, double-stranded DNA (CRE24, hsCRE24, C/EBP24 or hsCEBP24; final concentration ≦50 pM in binding buffer; final concentration ≦5 pM for peptides with Kapp <500 pM) in binding buffer were added to 0.008 ml of a serial peptide dilution on ice. Peptide-DNA mixtures were incubated for thirty minutes on ice and then applied to a pre-equilibrated, native polyacrylamide gel (8% acrylamide:bisacrylamide) prepared in 10 mM Tris buffer (pH. 8.1). Gels were allowed to run 0.75 to 1.5 hours at 500 V and were dried on a Model SE1160 Drygel Sr. gel dryer (Hoefer). The gels were analyzed using a Storm 840 Phosphorimager (Molecular Dynamics). Amounts of free and bound DNA were quantified and analyzed using the program KaleidaGraph 3.0 (Synergy Software). Dissociation constants were determined by fitting the data to the Langmuir equation=c[(1+(Kapp/peptideT^n))^−1] where n=1 for PPEBP^SR and EBP^SR and n=2 for C/EBP152. In these equations, theta=cpm in protein-DNA complex/(cpm in protein-DNA complex+cpm free DNA); peptideT=the total peptide concentration and c is an adjustable parameter representing the maximum value of theta (c ≦1; for many peptides c was defined as 1). Values reported represent the average of at least three independent trials ±the standard error. Error bars on the plots represent the standard error for each data point.
A general note: In EMSA bound probe runs differently from free probe, usually more slowly.

The mark [3] stands for this setting: fluorescein-labeled unphosphorylated peptide, read-out: Kd HisKIX, unphosphorylated peptide (U).
The mark [4] stands for this setting: label shows phosphorylated (P) or unphosphorylated (U) form, read-out: Kd HisKIX.
[5] abbreviates: 4° C., read-out: affinity (Kd) for hsCRE.
Setting [6] is: physiological ionic strength, read-out: equilibrium dissociation constant (Kd) of binding to hsCRE.

Where two headings read alike, the source gives them in different places. Square brackets hold non-standard residues; d marks the D form. Peptide text beside a SMILES is read from it. * marks the point of attachment. Fluorescein(5-NHCOCH2) = O=C(C*)Nc1ccc2c(c1)C(=O)OC21c2ccc(O)cc2Oc2cc(O)ccc21; pS = N[C@@H](COP(=O)(O)O)C(=O)O Bounds are passed on as bounds.

T1 sequence (P45481 586-672): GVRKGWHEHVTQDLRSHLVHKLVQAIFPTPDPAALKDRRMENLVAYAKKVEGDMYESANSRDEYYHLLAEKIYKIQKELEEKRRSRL

The Kd is the constant that tells how readily two partners part at equilibrium. For the molecule `CC[C@H](C)[C@H](NC(=O)[C@H](Cc1ccc(O)cc1)NC(=O)[C@H](Cc1ccccc1)NC(=O)[C@H](Cc1ccccc1)NC(=O)[C@H](COP(=O)(O)O)NC(=O)[C@H](CC(C)C)NC(=O)[C@H](CCCNC(=N)N)NC(=O)[C@H](CCCNC(=N)N)NC(=O)[C@@H](NC(=O)[C@@H]1CCCN1C(=O)[C@H](C)NC(=O)[C@H](CC(=O)O)NC(=O)[C@H](CC(=O)O)NC(=O)CNC(=O)[C@H](Cc1c[nH]cn1)NC(=O)[C@H](Cc1ccc(O)cc1)NC(=O)[C@@H](NC(=O)[C@@H]1CCCN1C(=O)[C@H](Cc1c[nH]c2ccccc12)NC(=O)[C@H](CO)NC(=O)[C@H](CC(C)C)NC(=O)CN)[C@@H](C)O)C(C)C)C(=O)N[C@@H](CC(C)C)C(=O)N[C@@H](CC(C)C)C(=O)N[C@@H](CC(=O)O)C(=O)N[C@@H](CC(C)C)C(=O)N[C@@H](Cc1ccc(O)cc1)C(=O)N[C@@H](CC(C)C)C(=O)N[C@@H](CC(=O)O)C(=O)N[C@@H](C)C(=O)N1CCC[C@H]1C(=O)NCC(=O)N[C@H](C(=O)N[C@@H](CSCC(=O)Nc1ccc2c(c1)C(=O)OC21c2ccc(O)cc2Oc2cc(O)ccc21)C(N)=O)C(C)C` [PPKID5], the Kd in assay [1] (fluorescein-labeled phosphopeptide, read-out: Kd HisKIX, phosphorylated peptide (P)) came out at 534 ± 31 nM; in assay [1] (setting [3]) it was 6600 ± 2000 nM.
For the molecule `CC[C@H](C)[C@H](NC(=O)CN)C(=O)N[C@@H](CO)C(=O)N[C@@H](Cc1c[nH]c2ccccc12)C(=O)N1CCC[C@H]1C(=O)N[C@H](C(=O)N[C@@H](Cc1ccccc1)C(=O)N[C@@H](CCC(=O)O)C(=O)NCC(=O)N[C@@H](CC(=O)O)C(=O)N[C@@H](CC(=O)O)C(=O)N[C@@H](C)C(=O)N1CCC[C@H]1C(=O)N[C@H](C(=O)N[C@@H](CCCNC(=N)N)C(=O)N[C@@H](CCCNC(=N)N)C(=O)N[C@@H](CC(C)C)C(=O)N[C@@H](CCC(=O)O)C(=O)N[C@@H](Cc1ccccc1)C(=O)N[C@@H](Cc1ccccc1)C(=O)N[C@@H](Cc1ccc(O)cc1)C(=O)N[C@H](C(=O)N[C@@H](CC(C)C)C(=O)N[C@@H](CC(C)C)C(=O)N[C@@H](CC(=O)O)C(=O)N[C@@H](CC(C)C)C(=O)N[C@@H](Cc1ccc(O)cc1)C(=O)N[C@@H](CC(C)C)C(=O)N[C@@H](CC(=O)O)C(=O)N[C@@H](C)C(=O)N1CCC[C@H]1C(=O)NCC(=O)N[C@H](C(=O)N[C@@H](CSCC(=O)Nc1ccc2c(c1)C(=O)OC21c2ccc(O)cc2Oc2cc(O)ccc21)C(N)=O)C(C)C)[C@@H](C)CC)C(C)C)[C@@H](C)O` [PPKID6 S18E] (H-GISWPTFEGDDAPVRRLEFFYILLDLYLDAPGVC(Fluorescein(5-NHCOCH2))-NH2), the Kd in assay [1] (setting [3]) is 10900 ± 2000 nM.
On to `CC[C@H](C)[C@H](NC(=O)[C@H](Cc1ccc(O)cc1)NC(=O)[C@H](Cc1ccccc1)NC(=O)[C@H](Cc1ccccc1)NC(=O)[C@H](CO)NC(=O)[C@H](CC(C)C)NC(=O)[C@H](CCCNC(=N)N)NC(=O)[C@H](CCCNC(=N)N)NC(=O)[C@@H](NC(=O)[C@@H]1CCCN1C(=O)[C@H](C)NC(=O)[C@H](CC(=O)O)NC(=O)[C@H](CC(=O)O)NC(=O)CNC(=O)[C@H](Cc1c[nH]c2ccccc12)NC(=O)[C@H](CCC(=O)O)NC(=O)[C@@H](NC(=O)[C@H](Cc1ccc(O)cc1)NC(=O)[C@@H]1CCCN1C(=O)[C@H](CO)NC(=O)[C@H](CC(C)C)NC(=O)CN)[C@@H](C)O)C(C)C)C(=O)N[C@@H](CC(C)C)C(=O)N[C@@H](CC(C)C)C(=O)N[C@@H](CC(=O)O)C(=O)N[C@@H](CC(C)C)C(=O)N[C@@H](Cc1ccc(O)cc1)C(=O)N[C@@H](CC(C)C)C(=O)N[C@@H](CC(=O)O)C(=O)N[C@@H](C)C(=O)N1CCC[C@H]1C(=O)NCC(=O)N[C@H](C(=O)N[C@@H](CSCC(=O)Nc1ccc2c(c1)C(=O)OC21c2ccc(O)cc2Oc2cc(O)ccc21)C(N)=O)C(C)C` [PPKID7] (H-GLSPYTEWGDDAPVRRLSFFYILLDLYLDAPGVC(Fluorescein(5-NHCOCH2))-NH2), for which the Kd was 2300 ± 200 nM in assay [1] (setting [3]) and 1500 to 3100 nM in assay [1] (setting [4]).
For `CC[C@H](C)[C@H](NC(=O)[C@H](Cc1ccc(O)cc1)NC(=O)[C@H](Cc1ccccc1)NC(=O)[C@H](Cc1ccccc1)NC(=O)[C@H](CO)NC(=O)[C@H](CC(C)C)NC(=O)[C@H](CCCNC(=N)N)NC(=O)[C@H](CCCNC(=N)N)NC(=O)[C@@H](NC(=O)[C@@H]1CCCN1C(=O)[C@H](C)NC(=O)[C@H](CC(=O)O)NC(=O)[C@H](CC(=O)O)NC(=O)CNC(=O)[C@@H]1CCCN1C(=O)[C@H](CC(=O)O)NC(=O)[C@@H](NC(=O)[C@H](CCCCN)NC(=O)[C@H](Cc1c[nH]c2ccccc12)NC(=O)[C@H](CO)NC(=O)[C@H](CC(C)C)NC(=O)CN)[C@@H](C)O)C(C)C)C(=O)N[C@@H](CC(C)C)C(=O)N[C@@H](CC(C)C)C(=O)N[C@@H](CC(=O)O)C(=O)N[C@@H](CC(C)C)C(=O)N[C@@H](Cc1ccc(O)cc1)C(=O)N[C@@H](CC(C)C)C(=O)N[C@@H](CC(=O)O)C(=O)N[C@@H](C)C(=O)N1CCC[C@H]1C(=O)NCC(=O)N[C@H](C(=O)N[C@@H](CSCC(=O)Nc1ccc2c(c1)C(=O)OC21c2ccc(O)cc2Oc2cc(O)ccc21)C(N)=O)C(C)C` [PPKID8] (H-GLSWKTDPGDDAPVRRLSFFYILLDLYLDAPGVC(Fluorescein(5-NHCOCH2))-NH2), in that order: 3100 ± 500 nM and 1500 to 3100 nM.
Take `CC[C@H](C)[C@H](NC(=O)[C@H](Cc1ccc(O)cc1)NC(=O)[C@H](Cc1ccccc1)NC(=O)[C@H](Cc1ccccc1)NC(=O)[C@H](COP(=O)(O)O)NC(=O)[C@H](CC(C)C)NC(=O)[C@H](CCCNC(=N)N)NC(=O)[C@@H](N)CCCNC(=N)N)C(=O)N[C@@H](CC(C)C)C(=O)N[C@@H](CC(C)C)C(=O)N[C@@H](CC(=O)O)C(=O)N[C@@H](CC(C)C)C(=O)N[C@@H](Cc1ccc(O)cc1)C(=O)N[C@@H](CC(C)C)C(=O)N[C@@H](CC(=O)O)C(=O)N[C@@H](C)C(=O)N1CCC[C@H]1C(=O)NCC(=O)N[C@H](C(=O)N[C@@H](CSCC(=O)Nc1ccc2c(c1)C(=O)OC21c2ccc(O)cc2Oc2cc(O)ccc21)C(N)=O)C(C)C` [Peptide C, reference compound] (H-RRL[pS]FFYILLDLYLDAPGVC(Fluorescein(5-NHCOCH2))-NH2): the “fold higher HisKIX affinity than KID-B^P” value in assay [1] is reported as “greater than 20 fold”. In addition, the “ΔΔG of CBP KIX binding compared to KID-B of the same phosphorylation state” value is -1.8 kcal/mol in assay [1] (listed as peptide C^P) and over -1.5 kcal/mol in assay [1] (listed as peptide C^U).
Take “DPAALKRARNTEAARRSRARKLQRMQC [G27, reference compound]”: in assay [2], the “stability of hsCRE24 complex lower than that of PPBR4^SR-hsCRE24 complex” value amounted to 3.1 kcal/mol and the “DNA binding at 25° C.” value was “Neither PPBR4 nor G27 showed evidence of DNA binding”. The Kd in assay [2] (setting [5]) came to 410 ± 53 nM.
Turning to “GPSQPTYPGDDAPVEDLKRFRNTLAARRSRARKAARAAA [PPBR4^SR]”, in assay [2], the “delta, delta-G, hsCRE24 in preference to hsCEBP24” value was -4.4 kcal/mol; the “ratio of protein concentrations required to bind one-half of the two DNA” value was 2600; the “DNA binding at 25° C.” value is listed as “Neither PPBR4 nor G27 showed evidence of DNA binding”. In assay [2] (4° C.), the “delta, delta-G of discrimination against mutations at the 5′ terminus of hsCRE” value was -1.7 kcal/mol. Also, the Kd in assay [2] (setting [5]) is 1.9 ± 0.2 nM. Also, in assay [2] (Krel (Kd(hsCRE)/Kd(hsCEPB))), the “specificity ratio Krel, hsCRE24 in preference to hsCEBP24” value is recorded as 2600. Further, the “formation of the hsCRE24 complex in presence of competitor DNA” value in assay [2] (high concentrations of poly (dIdC)-(dIdC) or a scrambled CRE site (NON)) is reported as “unaffected”. Also, the Kd in assay [2] (setting [6]) is 1.5 nM.
Regarding “GPSQPTYPGDDAPVEDLKRFRNTLAARRSRARKLQRMKQ [PPBR2^SR]”, the Kd in assay [2] (setting [6]) is 5 nM.
As for “PPBR10^SR: polyproline helix-basic region peptide, SEQ ID NO: 9 (GPSQPTYPGDDAPVEDLKRFRNTLAAYLSRLRKAARAAA; Pancreatic polypeptide basic region PPBR10)”, the DNA binding entry in assay [2] was “No significant DNA binding was detected”.
Take “PPBR11^SR: polyproline helix-basic region peptide, SEQ ID NO: 10 (GPSQPTYPGDDAPVEDLKRFRNTLAARLSRLRKAARAAA; Pancreatic polypeptide basic region PPBR11)”: the DNA binding entry in assay [2] is “No significant DNA binding was detected”.
Same read-out and setting: to “PPBRO^SR: polyproline helix-basic region peptide, SEQ ID NO: 8, lacking DNA-contact residue(s) (GPSQPTYPGDDAPVEDLKRFRNTLAAYLSVVRKLQRMKQ; Pancreatic polypeptide basic region PPBR0)” belongs “No significant DNA binding was detected”.
